From ChEMBL document CHEMBL1201862, “PubChem BioAssay data set” (2004)
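Five compound concentrations were applied to cells in 96-well plates for 48 hours; endpoints were derived by simple linear interpolation of the resulting dose-response curve. Here, GI50 denotes the concentration required for 50% inhibition of growth.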 Activity calls are given as the source filed them. Cut-off read from the data, not from the text of the source: active = GI50 up to about 1.1 µM and inactive = higher.

Tests used:
Test in all cases: DTP human tumour cell line panel, 48 h
HT-29 = test system: HT-29
HCT-116 = test system: HCT-116
NCI-H226 = test system: NCI-H226
OVCAR-3 = test system: OVCAR-3
SF-295 = test system: SF-295
NCI-H23 = test system: NCI-H23
A498 = test system: A498
HCT-15 = test system: HCT-15
SR = test system: SR
Hs-578T = test system: Hs-578T
IGROV-1 = test system: IGROV-1
SK-MEL-28 = test system: SK-MEL-28
UACC-257 = test system: UACC-257
TK-10 = test system: TK-10
MCF7 = test system: MCF7
SK-MEL-2 = test system: SK-MEL-2
786-0 = test system: 786-0
SK-MEL-5 = test system: SK-MEL-5
NCI-H522 = test system: NCI-H522
HL-60 = test system: HL-60

SMILES	GI50 (HT-29)	GI50 (HCT-116)	GI50 (NCI-H226)	GI50 (OVCAR-3)	GI50 (SF-295)	GI50 (NCI-H23)	GI50 (A498)	GI50 (HCT-15)	GI50 (SR)	GI50 (Hs-578T)	GI50 (IGROV-1)	GI50 (SK-MEL-28)	GI50 (UACC-257)	GI50 (TK-10)	GI50 (MCF7)	GI50 (SK-MEL-2)	GI50 (786-0)	GI50 (SK-MEL-5)	GI50 (NCI-H522)	GI50 (HL-60)
CC(=O)Oc1cc2oc(=O)cc(C)c2cc1OC(C)=O	39.6 µM (inactive)	44 µM (inactive)	40.2 µM (inactive)	33.1 µM (inactive)	41.8 µM (inactive)	75.2 µM (inactive)	44.6 µM (inactive)	38.5 µM	39.6 µM (inactive)	68.4 µM (inactive)	27.9 µM (inactive)	53.1 µM (inactive)	48.9 µM (inactive)	44.5 µM (inactive)	38.8 µM (inactive)	> 100 µM (inactive)	61 µM (inactive)	> 100 µM (inactive)		
COc1cccc2[nH]c(-c3ccccn3)nc12	> 100 µM (inactive)	> 100 µM (inactive)	> 100 µM (inactive)	55.7 µM (inactive)	52.6 µM (inactive)	> 100 µM (inactive)	> 100 µM (inactive)	55.7 µM	> 100 µM (inactive)	68.9 µM (inactive)	> 100 µM (inactive)	> 100 µM (inactive)	> 100 µM (inactive)	> 100 µM (inactive)	> 100 µM (inactive)	> 100 µM (inactive)	> 100 µM (inactive)	> 100 µM (inactive)	48.9 µM (inactive)	
O=C(Cn1c(=O)oc2ccccc21)N(c1ccccc1)c1ccccc1	> 100 µM (inactive)	> 100 µM (inactive)	15.2 µM (inactive)	> 100 µM (inactive)	> 100 µM (inactive)	> 100 µM (inactive)	> 100 µM (inactive)	> 100 µM	> 100 µM (inactive)	40.9 µM (inactive)	26.5 µM (inactive)	> 100 µM (inactive)	> 100 µM (inactive)	> 100 µM (inactive)	> 100 µM (inactive)	> 100 µM (inactive)	> 100 µM (inactive)	> 100 µM (inactive)		> 100 µM (inactive)
O=C1/C(=C/c2ccc(Cl)cc2)CSc2ccccc21	19.4 µM (inactive)	2.6 µM (inactive)	17.4 µM (inactive)	22.3 µM (inactive)		21.3 µM (inactive)	62.5 µM (inactive)	4.62 µM	5 µM (inactive)	4.57 µM (inactive)	23.7 µM (inactive)	23.1 µM (inactive)	12.7 µM (inactive)	42.2 µM (inactive)	2.26 µM (inactive)	15.7 µM (inactive)	17.5 µM (inactive)	20.6 µM (inactive)		17.9 µM (inactive)
C=CC(C)(O)/C=C/C=C(\C)C(CC1OC1(C)C)OC(=O)/C(C)=C\C (configuration not stated)	> 100 µM (inactive)	> 100 µM (inactive)		> 100 µM (inactive)	> 100 µM (inactive)	> 100 µM (inactive)	> 100 µM (inactive)	> 100 µM	> 100 µM (inactive)	> 100 µM (inactive)	> 100 µM (inactive)	> 100 µM (inactive)	> 100 µM (inactive)	> 100 µM (inactive)	> 100 µM (inactive)	> 100 µM (inactive)	> 100 µM (inactive)	> 100 µM (inactive)	> 100 µM (inactive)	> 100 µM (inactive)
CC(=O)O[C@@H]1CN(S(=O)(=O)c2ccc(C)cc2)C[C@@H]1C1CCCCC1	22.9 µM (inactive)		16.5 µM (inactive)	15 µM (inactive)	37.9 µM (inactive)	38.5 µM (inactive)	20 µM (inactive)	32.6 µM	23.4 µM (inactive)	11.5 µM (inactive)	17.3 µM (inactive)	14.5 µM (inactive)	15.4 µM (inactive)	14.2 µM (inactive)	19.4 µM (inactive)	17 µM (inactive)		19.2 µM (inactive)		
O=[N+]([O-])c1cn[n+]([O-])c2ccccc12	4.65 µM (inactive)	1.24 µM (inactive)	7.36 µM (inactive)	2.55 µM (inactive)	4.75 µM (inactive)	14.7 µM (inactive)	23.1 µM (inactive)	2.06 µM	0.403 µM (active)	13.8 µM (inactive)		10.4 µM (inactive)	11.4 µM (inactive)	12.9 µM (inactive)	10.7 µM (inactive)		2.43 µM (inactive)	13.2 µM (inactive)		1.17 µM (inactive)
CCN(CC)CCCn1c(=O)c2cccnc2n2c3c(=O)n(C)c(=O)n(C)c3nc12	> 100 µM (inactive)	> 100 µM (inactive)	> 100 µM (inactive)	> 100 µM (inactive)	> 100 µM (inactive)	> 100 µM (inactive)		> 100 µM	> 100 µM (inactive)	> 100 µM (inactive)	> 100 µM (inactive)	> 100 µM (inactive)	> 100 µM (inactive)	> 100 µM (inactive)	> 100 µM (inactive)	> 100 µM (inactive)	> 100 µM (inactive)	> 100 µM (inactive)	> 100 µM (inactive)	> 100 µM (inactive)
CN(C(=O)Cc1ccc(Cl)c(Cl)c1)[C@H]1CCCC[C@@H]1[N+]1(C)CCCC1	> 100 µM (inactive)	> 100 µM (inactive)	> 100 µM (inactive)	> 100 µM (inactive)	> 100 µM (inactive)	> 100 µM (inactive)	> 100 µM (inactive)	> 100 µM	> 100 µM (inactive)	> 100 µM (inactive)	> 100 µM (inactive)	> 100 µM (inactive)	> 100 µM (inactive)	> 100 µM (inactive)	> 100 µM (inactive)	> 100 µM (inactive)	> 100 µM (inactive)	71.6 µM (inactive)	> 100 µM (inactive)	
CCC1(c2ccc(N3C(=O)c4cc(OC)c(OC)cc4C3=O)cc2)CCC(=O)NC1=O (configuration not stated)	> 10 µM (inactive)	> 10 µM (inactive)	> 10 µM (inactive)	> 10 µM (inactive)	> 10 µM (inactive)	> 10 µM (inactive)	> 10 µM (inactive)	> 10 µM	> 10 µM (inactive)	> 10 µM (inactive)	> 10 µM (inactive)	> 10 µM (inactive)	> 10 µM (inactive)	> 10 µM (inactive)	> 10 µM (inactive)	> 10 µM (inactive)	> 10 µM (inactive)	> 10 µM (inactive)		> 10 µM (inactive)
CCOc1ccc(/N=N/C2C(=O)N(C(=O)CC(=O)Nc3ccc(C)cc3)N=C2C)cc1 (configuration not stated)	24 µM (inactive)	12.4 µM (inactive)	26.3 µM (inactive)	20.6 µM (inactive)	21.2 µM (inactive)	26.5 µM (inactive)	13.2 µM (inactive)	38.1 µM	14 µM (inactive)	5.73 µM (inactive)	15.9 µM (inactive)	30.8 µM (inactive)	> 100 µM (inactive)	24.8 µM (inactive)	40.6 µM (inactive)	26.6 µM (inactive)	16 µM (inactive)	72.3 µM (inactive)		13.1 µM (inactive)
